{
  "source": "patent US10376520B2",
  "about": "“Methods for the treatment of cardiovascular disorders” (Galapagos NV, priority 2015, dated 2019)",
  "test_system": "RA patients",
  "experiment": "Lipoprotein A (Lp(a)) level (Selectra autoanalyzer), Study 4",
  "assay_type": "in vivo, human",
  "details": "for LpA level, 4 weeks CFB: 4 weeks change from baseline",
  "method": "Randomized double-blind, placebo-controlled add on study in subjects with active RA who have an inadequate response to MTX monotherapy, in combination with methotrexate, administered for 4 weeks in the treatment of subjects with active rheumatoid arthritis who have an inadequate response to methotrexate alone.\nCompound 1 (dosed as a [Compound 1:HCl:3H2O]) capsules administered orally in 30 mg, 75 mg, 150 mg, or 300 mg doses per day for 4 weeks.\nLipoprotein A (Lp(a)) were measured on the Selectra autoanalyzer (Sopachem BV, 44-RI Straat 33, 4051 AP Ochten, The Netherlands). All assays were commercially available from DiaSys Diagnostic Systems GmbH, Alte Strasse 9, 65558 Holzheim, Germany.",
  "data": [
    {"smiles": "O=C(Nc1nc2cccc(-c3ccc(CN4CCS(=O)(=O)CC4)cc3)n2n1)C1CC1", "note": "[Compound 1, cyclopropanecarboxylic acid {5-[4-(1,1-dioxo-thiomorpholin-4-ylmethyl)-phenyl]-[1,2,4]triazolo[1,5-a]pyridin-2yl}-amide]", "values": [
      {"measurement": "LpA level, 4 weeks CFB", "setting": "30 mg q.d.", "result": 3.9, "unit": "%"},
      {"measurement": "LpA level, Baseline", "setting": "30 mg q.d.", "result": 22.5, "unit": "mg/dL"},
      {"measurement": "LpA level, week 4", "setting": "30 mg q.d.", "result": 25.9, "unit": "mg/dL"},
      {"measurement": "LpA level, 4 weeks CFB", "setting": "75 mg q.d.", "result": "−3.7", "unit": "%"},
      {"measurement": "LpA level, Baseline", "setting": "75 mg q.d.", "result": 28.5, "unit": "mg/dL"},
      {"measurement": "LpA level, week 4", "setting": "75 mg q.d.", "result": 23.6, "unit": "mg/dL"},
      {"measurement": "LpA level, 4 weeks CFB", "setting": "150 mg q.d.", "result": 7.0, "unit": "%"},
      {"measurement": "LpA level, Baseline", "setting": "150 mg q.d.", "result": 29.5, "unit": "mg/dL"},
      {"measurement": "LpA level, week 4", "setting": "150 mg q.d.", "result": 35, "unit": "mg/dL"},
      {"measurement": "LpA level, 4 weeks CFB", "setting": "300 mg q.d.", "result": 4.4, "unit": "%"},
      {"measurement": "LpA level, Baseline", "setting": "300 mg q.d.", "result": 13.4, "unit": "mg/dL"},
      {"measurement": "LpA level, week 4", "setting": "300 mg q.d.", "result": 10.1, "unit": "mg/dL"}
    ]}
  ]
}
